Target: T1, IDO-1 (Homo sapiens, UniProt P14902)
T1 construct: expressed in transfected cells; host or cells: HEK293 (hIDO1-HEK293 recombinant cells)
Assay: IDO-1 activity by kynurenine levels in hIDO1-HEK293 recombinant cells
Format: cell-based
Details: 10 uM, 24 hours
Experimental: IDO-1 activity was measured indirectly using kynurenine levels using the following protocols. Briefly, hIDO1-HEK293 recombinant cells were plated overnight. The following day the cells were left untreated or treated with 10 uM of ID3, ID3-SA or LNP-ID3-SA for twenty-four (24) hours. The IDO-1 activity was measured by indirect measurement of kynurenine levels by analyzing absorption at 480 nm using IDO1 Cellular Activity QuickDetect™ kit (PBSBioscience, San Diego, CA).

T1 sequence (P14902 whole entry): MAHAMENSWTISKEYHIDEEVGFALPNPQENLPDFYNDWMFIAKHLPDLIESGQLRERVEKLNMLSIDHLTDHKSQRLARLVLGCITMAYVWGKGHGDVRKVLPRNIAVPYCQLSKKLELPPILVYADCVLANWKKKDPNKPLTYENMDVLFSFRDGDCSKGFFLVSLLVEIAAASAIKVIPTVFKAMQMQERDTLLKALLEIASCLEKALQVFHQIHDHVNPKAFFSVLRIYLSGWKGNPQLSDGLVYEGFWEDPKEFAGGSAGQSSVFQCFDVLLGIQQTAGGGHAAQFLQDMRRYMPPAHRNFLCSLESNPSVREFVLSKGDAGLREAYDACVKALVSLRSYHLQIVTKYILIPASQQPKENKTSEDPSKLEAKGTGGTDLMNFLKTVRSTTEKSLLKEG

IDO-1 activity (kynurenine levels, absorption at 480 nm): inhibited IDO-1 activity
SMILES: CCCCCCCCCCCCCCCCCC(=O)OCOC(=O)N(C(=O)[C@H](C)[C@H]1CC[C@@H](c2ccnc3ccc(F)cc32)CC1)c1ccc(Cl)cc1 [ID3-SA]
